Data as given in patent US7192617B2, “Whitening agent, skin preparation for external use and cosmetic” (priority 2002, dated 2007).

Experiment: Test for measuring DPPH radical scavenging activity
Conditions: 30 minutes of reaction at 30° C., absorbance at 517 nm; in terms of the evaporation residue
Description: 800 μl of a 500 μM DPPH solution was added to the test tube, stirred, and reacted at 30° C. Exactly after 30 minutes of reaction, the absorbance of the sample at 517 nm was measured, using distilled water as a standard. From the measured absorbances, the DPPH radical scavenging ratio was calculated, and the 50% radical scavenging activity (IC50) was obtained. The same procedure was performed with α-tocopherol, which is a known antioxidative component, for measuring the DPPH radical scavenging activity. […] From the measured values, the DPPH radical scavenging ratios were calculated.

Cc1c(C)c2c(c(C)c1O)CC[C@@](C)(CCC[C@H](C)CCC[C@H](C)CCCC(C)C)O2 [α-tocopherol]
50% DPPH radical scavenging activity (IC50): 0.13 mg/g
